Results as given in US20090054527A1, “Administration of capsaicinoids” (AlgoRx, priority 2002, published 2009).
Where “and” joins values, the source holds several entries; their conditions need not be identical. Equal values may be shown once. Read-outs that look alike come from different tables or passages of the source.

Experiments:
[1] = tested on: inflammatory and neuropathic pain; details: formalin test and spinal nerve ligation; cited from earlier work
[2] = human, in vivo; cited from earlier work
[3] = tested on: subjects with osteoarthritis of the knee; experiment: Osteoarthritis of the knee efficacy study (Phase 2): NRS pain score; type: in vivo, human; details: 1000 μg intra-articular, three weeks following administration, P=0.03
Procedure: The study is designed to include 12 evaluation subjects (Patients suffering a defined pain: >40 mm on VAS). […] Patients are treated randomly and in double-blind fashion. Gross and microscopic pathology analysis are completed for each treatment group. Each subject has 3 study visits: a Screening Day (Day −7 to −1), the Treatment Day (Day 0), and a Post-Treatment Day (scheduled for Day +2, +4, +7, or +14). On the Treatment Day the subject is randomized, pre-treatment evaluation is performed. The patient is brought into the procedure room, and a VAS pain score is taken (0 mm—no pain, 100 mm—extreme pain). Once the patient marks his or her pain on the card, he/she is prepped for knee cannulation. Once the cannula is placed, the patient receives, by intra-articular infiltration, 3 mg/kg (maximum dose of 200 mg) of 2% lignocaine into the knee scheduled to be replaced.
VAS pain scores as well as verbal reports are taken immediately following administration, as well as prior to knee replacement surgery. On the Post-Treatment Day, a study evaluation is performed followed by the scheduled knee replacement, with intra-operative bone and soft tissue biopsies performed for subsequent examination. […]
Changes in NRS (Numerical Rating Scale) pain scores were measured at three weeks following administration.

[4] = tested on: subjects undergoing transpositional osteotomy (bunionectomy); experiment: Bunionectomy efficacy study (Phase II): capsaicin dripped into the wound before closure; VAS pain and rescue medication; type: in vivo, human; details: for VAS pain score at the operation site (mean +/− SEM): 1000 μg, n = 11
Procedure: The primary efficacy endpoint was the proportion of subjects in each treatment group requiring opioid analgesia in the first 24 hours post-operatively. The proportions were compared amongst treatment groups using the Cochran-Haenszel test. Secondary efficacy end points included: i) proportion of subjects in each treatment group requiring opioid analgesia in the first 36 hour period post-operatively (Similarly, the proportions were compared amongst treatment groups using the Cochran-Haenszel test); ii) proportion of subjects in each treatment group requiring opioid analgesia in the 10 day period post-operatively (Similarly, the proportions were compared amongst treatment groups using the Cochran-Haenszel test); iii) time to first usage of opioid analgesia in each treatment group (a survival analysis approach will be used: the product-limit (Kaplan-Meier) method will be applied to time to first usage of opioid analgesia. The median time to first usage of opioid analgesia will be estimated in both treatment groups. Pairwise comparisons will be performed to test for equality of the survival curves between the 2 treatment groups using both the log-rank and the Wilcoxon test); iv) total usage of analgesia in each treatment group (the total usage of analgesia will be compared by an analysis of variance with treatment and center as independent variables. A pairwise comparison will be performed between the treatment groups); and v) VAS assessment of pain at the site of operation in each treatment group (The VAS score at each time point will be compared by an analysis of variance with treatment and center as independent variables. A pairwise comparison will be performed between the treatment groups). […] The efficacy analysis was performed on the data obtained ten days postoperatively. The safety analysis was performed based on the safety data for the entire study, including the 6 week and 12 week follow-up periods. The blind was broken at the time the efficacy analysis was performed. However, the individual treatment assignment was available to the statistical analysis group only. All other personnel involved in the study, including the Investigator, study monitor and proprietary staff, remained blinded until the entire study was completed.
The study was designed to include 40 evaluation subjects. […] Each subject had six (6) study visits: a Screening Day (Day −28 to −1), an Operation Day (Day 0), and four (4) Follow-up visits (scheduled for Days 3, 10 and weeks 6 and 12).
On Operation Day (Day 0) the following was performed: a) Pre-operation: Prior to the initiation of an ankle block, inclusion/exclusion criteria assessment was performed. […] Immediately prior to wound closure, the Investigator slowly dripped the study medication (4 mL) from a syringe into the wound, ensuring even tissue exposure. The wound was then be closed according to normal practices and procedures.
In the 24 hours following administration of study medication, vital signs (supine pulse rate and blood pressure) were recorded at 1, 2, 4 and 24 hours post administration. VAS assessment of pain at the operation site was performed at 1, 4, 8, 12 and 24 hours post administration. In those instances where VAS measurements coincide with blood sampling procedures, the VAS assessment was performed first. […] The quantity of each blood sample was 10 mL. Laboratory safety assessments, e.g., haematology, biochemistry, urinalysis were performed at 24 hours post administration. Adverse events were spontaneously reported by the subject and recorded. Rescue analgesia medication was provided to the subject if required (initially diclofenac 50 mg, repeated at 8 hourly intervals if necessary). When diclofenac was judged by the Investigator to provide inadequate pain relief then the subject was provided with alfentanil 1 mg, repeated at 6 hourly intervals, if necessary.

[5] = clinical; design: species or system human; details: in vivo
Procedure: The pharmacokinetic parameters of Cmax, Tmax, AUC(0−tlast) and t½ were evaluated.

[6] = tested on: subjects with osteoarthritis of the knee; experiment: Osteoarthritis of the knee safety study (Phase 1): intra-articular purified capsaicin after lignocaine; safety, tolerability, VAS pain; type: in vivo, human
Procedure: The primary objective of the study was to evaluate the safety and tolerability of intra-articular capsaicin, when co-administered with intra-articular local anesthetic, compared to placebo, in subjects with end-stage osteoarthritis of the knee, already scheduled to receive knee replacements.
The study was designed to include 16 evaluation subjects. […] Sixteen subjects completed the study.
Patients were treated randomly and in double-blind fashion in four treatment groups, with each group having a progressively longer interval between the intra-articular administration of study medication and subsequent total knee replacement (2, 4, 7, and 14 days). […] Gross and microscopic pathology analysis was completed for each treatment group before the next treatment group was treated.
Each subject had 3 study visits: a Screening Day (Day −7 to −1), the Treatment Day (Day 0), and a Post-Treatment Day (scheduled for Day +2, +4, +7, or +14). On the Treatment Day the subject was randomized, pre-treatment evaluation was performed. The patients were brought into the procedure room, and a VAS pain score was taken (0 mm—no pain, 100 mm—extreme pain). Once the patient had marked his or her pain on the card, he/she was prepped for knee cannulation. Once the cannula was placed, the patient received by intra-articular infiltration, 3 mg/kg (maximum dose of 200 mg) of 2% lignocaine into the knee scheduled to be replaced.
VAS pain scores as well as verbal reports were taken immediately following administration, as well as prior to knee replacement surgery. No subjects discontinued from the study due to adverse events.
On the Post-Treatment Day, study evaluation was performed followed by the scheduled knee replacement, with intra-operative bone and soft tissue biopsies performed for subsequent examination. […] This therefore left the 3 placebo and 9 active patients from the 4 day, 7 day, and 14 day cohorts.

[7] = tested on: radiation induced hyperalgesia; details: systemic, cited from earlier work
[8] = cited from earlier work

CN(C)CCC=C1c2ccccc2CCc2ccccc21 [amitriptyline]
action when administered locally [1]: produced local antinociceptive actions

CNCCCN1c2ccccc2CCc2ccccc21 [desipramine]
action when administered locally [1]: produced local antinociceptive actions

CN1C(C(=O)Nc2ccccn2)=C(O)c2ccccc2S1(=O)=O [piroxicam]
patients experiencing gross bleeding and ulceration [2]: up to 4%

COc1cc(CNC(=O)CCCC/C=C/C(C)C)ccc1O [purified capsaicin, N-(4-hydroxy-3-methoxybenzyl)-8-methylnon-trans-6-enamide]
final NRS (Numerical Rating Scale) pain score [3]: 3.97 | time at which a subject required rescue, per subject ([4]; 1000 μg prior to wound closure): 1 h and 4 h and 5 h and 8 h and 12 h | study subjects requiring rescue ([4]; 1000 μg prior to wound closure, 72 hours, n=11): 45% | subjects that did not rescue in 72 hours ([4]; 1000 μg prior to wound closure, n=11): 6 subjects | VAS pain score at the operation site (mean +/− SEM) ([4]; 1 hr): 11.1 +/− 7.3 | VAS pain score at the operation site (mean +/− SEM) ([4]; 8 hr): 5.5 +/− 2.3 | VAS pain score at the operation site (mean +/− SEM) ([4]; 12 hr): 8.2 +/− 3.8 | VAS pain score at the operation site (mean +/− SEM) ([4]; 24 hr): 1.9 +/− 1.0 | VAS pain score at the operation site (mean +/− SEM) ([4]; 48 hr): 5.9 +/− 2.5 | VAS pain score at the operation site (mean +/− SEM) ([4]; 72 hr): 10.6 +/− 3.5 | Tmax ([5]; human, 300 ug): 30 min | half-life ([5]; human, 300 ug, terminal exponential half life, per subject): 19.6 min | plasma concentrations compared with the 100 μg and 300 μg dose groups [5]: clearly lower | incidence of post injection hyperalgesia ([6]; 10 μg dose group): no subjects | patients reporting transient burning pain immediately following instillation ([6]; 10 μg intra-articular): 0 of 4 | duration of post-administration (hyper)algesic pain, per subject ([6]; 100 μg dose group): 9 min | incidence of post injection hyperalgesia ([6]; 100 μg dose group): 1 subject | subjects requiring intervention for post-injection (hyper)algesia ([6]; 100 μg dose group): 1 subject | patients reporting transient burning pain immediately following instillation ([6]; 100 μg intra-articular): 1 of 4 | duration of post-administration (hyper)algesic pain, per subject ([6]; 300 μg dose group): 17 minutes and 25 minutes (2×) and 42 minutes | incidence of post injection hyperalgesia ([6]; 300 μg dose group): 4 subjects | subjects requiring intervention for post-injection (hyper)algesia ([6]; 300 μg dose group): 4 subjects | patients reporting transient burning pain immediately following instillation ([6]; 300 μg intra-articular): 4 of 4 | reduction of VAS pain score, before administration vs day of surgery ([6]; 9 active patients of the 4, 7 and 14 day cohorts, doses 10-300 μg pooled): 62±14% | effects on laboratory safety parameters or vital signs ([6]; 10-300 μg intra-articular): no treatment related effects | effects on soft tissue, cartilage or bone upon histopathological examination ([6]; 10-300 μg intra-articular): no treatment related effects | erythema, edema or hemorrhage at the site of injection ([6]; 10-300 μg intra-articular): no treatment related signs | gross and microscopic pathology ([6]; 10-300 μg intra-articular): normal | leakage of study drug from the joint space ([6]; 10-300 μg intra-articular): low leakage | systemic side effects ([6]; 10-300 μg intra-articular): No treatment related systemic side effects | median decrease from baseline to pre-operative time point in VAS for pain at the target knee, vs placebo ([6]; all 3 capsaicin dose groups): substantially greater | tolerability ([6]; all dose levels (10, 100, 300 μg)): well tolerated | onset of post-administration (hyper)algesia after administration ([6]; all episodes, 100 and 300 μg): ≤ 5 min | effect on proprioception at the injected knee ([6]; any dose group, any time point): no discernable effect | indication of efficacy on VAS pain ([6]; any of the dose levels (10, 100, 300 μg)): No clear treatment related indication of efficacy | effect on radiation induced hyperalgesia ([7]; final doses of 25 mg/kg or less, prior to ultra violet radiation): prevented radiation induced hyperalgesia | effect on pain threshold ([7]; final doses of 25 mg/kg or less): did not elevate the pain threshold above normal range | effect on pain threshold ([7]; final doses of 50 mg/kg or greater): pain threshold elevated | solubility in alcohol, ether, benzene and chloroform [8]: freely soluble | solubility in water [8]: practically insoluble
